Like-named read-outs stand apart in the source and are kept apart here.

In data set [1] the test system is promastigote forms of L. amazonensis. The data set is described as follows: Leishmanicidal activity against promastigote forms of L. amazonensis (resazurin). The note with it: L. amazonensis promastigotes, 72 h, read-out: IC50 ± SD promastigote. The format is cell-based, Leishmania amazonensis. The protocol:
Promastigotes of L. amazonensis (MHOM/BR/71973/M2269) were grown on 24-well plates in Schneider’s Drosophila medium (Sigma, USA) supplemented with 10.0% (v/v) heat-inactivated fetal bovine serum and 1.0% penicillin (10000 UI mL^–1)/streptomycin (10.0 mg mL^–1) (Sigma, USA). Cells were harvested in the log phase, suspended in a fresh medium, counted in Neubauer’s chamber, and adjusted to a concentration of 1 × 10^6 cells mL^–1 using 24-well plates. The compounds were added to promastigote cultures (1 × 10^6 cells mL^–1) in the range of 0.10–40.00 μg mL^–1, solubilized in dimethyl sulfoxide (DMSO) (0.6%, v/v in all wells), and incubated at 25 °C. After 72 h of incubation, resazurin was used to detect cellular metabolic activity for the determination of 50.0% inhibitory growth concentration (IC50-promastigote). All tests were performed in triplicate at three different times, and amphotericin B (Sigma) was used as the reference drug.

The nature of data set [2]: Murine cytotoxicity by MTT method. As to conditions: mouse; murine peritoneal macrophages, MTT; read-out: murine macrophage CC50 ± SD. The format is cell-based. The protocol:
(§1) Murine cytotoxicity was assessed by the 3-(4,5-dimethylthiazol-2-yl)-2,5-diphenyltetrazolium bromide (MTT) method using murine peritoneal macrophages to determine the CC50. For this purpose, murine peritoneal macrophages were maintained in RPMI 1640 medium at 37 °C and 5% CO2, arranged in 96-well plates at a ratio of […], where the compounds to be evaluated were added at concentrations of 500, 250, 125, 62.5, 31.25, 15.625, 7.8125, and 3.90 μg mL^–1 and incubated for 24, 48, and 72 h. After incubation, 10 μL of MTT (at a concentration of 5 mg mL^–1) was added per well, with a further 4 h incubation. The cells were lysed with dimethyl sulfoxide (DMSO) and evaluated in a Shimadzu UV/vis spectrophotometer (double beam, model 2550) at 570 nm to determine the CC50 compared to the control without the addition of compounds or drugs. , The optical density obtained was then converted to the percentage of inhibition using eq so that the CC50 could then be determined by regression analysis of the data. %inhibition=[(DOcontrol−DOcompound)/DOcontrol]×100 1
(§2) The percentage of viable cells was calculated considering the cell culture control (medium + cells + DMSO = 0.6% v/v).
Background: Tetrazolium assays rely on reduction of a dye to a coloured formazan, in cell work by metabolically active cells.

For data set [3], the system named is amastigote forms of L. amazonensis. The data set is described as follows: Leishmanicidal activity against intracellular amastigote forms of L. amazonensis in murine peritoneal macrophages. It counts as cell-based. As to conditions: Leishmania amazonensis, Peritoneal macrophage; intracellular amastigotes in murine peritoneal macrophages, 72 h, Giemsa; read-out: IC50 ± SD amastigote. How it is done: To evaluate the leishmanicidal activity in amastigotes, murine peritoneal macrophages were used and maintained in RPMI-1640 medium at 37 °C and 5% CO2 in 24-well plates. After 24 h, the nonadherent macrophages were removed, and these cells were infected with Leishmania (L.) amazonensis promastigotes in the stationary phase of the proliferation curve at a ratio of 10:1. The day after infection, the noninternalized parasites were removed, and the compounds to be evaluated were added at concentrations of 40, 10, 5, and 0.1 μg mL^–1 and incubated for 72 h at 37 °C and 5% CO2; they were then fixed in methanol and stained with 10% Giemsa (MERCK) for subsequent analysis by light microscopy. To assess the effect of the compounds, the number of amastigotes/macrophages and the number of infected macrophages were evaluated. The percentage of infected cells was considered to illustrate the results since these are expressed as CI50-amastigote. ,

Data set [4] is described as follows: Cytotoxicity on human fibroblast culture (sulforodamine B (SRB) test). The format is cell-based. The note with it: read-out: human fibroblasts CC50 ± SD.
The test system of data set [5] is murine peritoneal macrophages. Nature of the data set: Murine cytotoxicity by MTT method. The format is cell-based. How it is done:
as §1, §2

As a reminder, the IC50 is the concentration needed to halve the response being measured. For orientation: CC50 means the concentration that lowers cell viability or growth by half. As for `O=[N+]([O-])c1ccc(-c2cn(CC(O)Cn3cc(-c4ccc([N+](=O)[O-])cc4)nn3)nn2)cc1` [8b, 1,3-Bis(4-(4-nitrophenyl)-1H-1,2,3-triazol-1-yl)propan-2-ol], the IC50 in data set [1] (Leishmania amazonensis) came out at 48.4 ± 1.3 µM. Moreover, the CC50 in data set [2] was 305 ± 7.84 µM.

On to `Cc1ccc(-c2cn(CC(O)Cn3cc(-c4ccc(C)cc4)nn3)nn2)cc1` [8c, 1,3-Bis(4-(p-tolyl)-1H-1,2,3-triazol-1-yl)propan-2-ol], for which, in data set [1] (Leishmania amazonensis), the IC50 was determined as 116 ± 2.61 µM. For the same molecule, the CC50 in data set [2] was 282.2 ± 1.65 µM.

For the molecule `OC(Cn1cc(C(=NNc2nc3ccccc3s2)c2ccccc2)nn1)Cn1cc(C(=NNc2nc3ccccc3s2)c2ccccc2)nn1` (centres unmarked) [12c, 1,3-Bis(4-((2-(benzo[d]thiazol-2-yl)hydrazineylidene)(phenyl)methyl)-1H-1,2,3-triazol-1-yl)propan-2-ol], in data set [1] (Leishmania amazonensis), the IC50 was 19.2 ± 1.4 µM. Also, the CC50 in data set [2] was 51.3 ± 8.57 µM.

With `C[C@@H]1[C@H](O)[C@@H](C)/C=C/C=C/C=C/C=C/C=C/C=C/C=C/[C@H](O[C@@H]2O[C@H](C)[C@@H](O)[C@H](N)[C@@H]2O)C[C@@H]2O[C@](O)(C[C@@H](O)C[C@@H](O)[C@H](O)CC[C@@H](O)C[C@@H](O)CC(=O)O[C@H]1C)C[C@H](O)[C@H]2C(=O)O` [amph B, amphotericin B, reference compound], the values for the IC50 in data set [1] (Leishmania amazonensis) and in data set [3] were 1.4 ± 0.04 µM and 1.9 ± 0.07 µM, respectively. For the same molecule, the half-maximal cytotoxic concentration (CC50) turned out to be 27.1 ± 3.19 µM in data set [2] and 22.95 ± 0.1 µM in data set [4].

Regarding `OC(c1ccccc1)c1cn(Cc2ccccc2)nn1` (centres unmarked) [compound 4], in data set [1] (Leishmania amazonensis), the IC50 was determined as 42.8 ± 2.66 µM. For the same molecule, in data set [2], the CC50 is 322 ± 10.4 µM.

Consider `OC(Cn1cc(C(O)c2ccccc2)nn1)Cn1cc(C(O)c2ccccc2)nn1` (centres unmarked) [compound 9, ((2-Hydroxypropane-1,3-diyl)bis(1H-1,2,3-triazole-1,4-diyl))bis(phenylmethanol)], for which the IC50 in data set [1] (Leishmania amazonensis) amounted to 62.3 ± 3.29 µM. The CC50 in data set [2] was found to be 144.3 ± 0.94 µM.

For the molecule `O=C(c1ccccc1)c1cn(CC(O)Cn2cc(C(=O)c3ccccc3)nn2)nn1` [compound 10, ((2-Hydroxypropane-1,3-diyl)bis(1H-1,2,3-triazole-1,4-diyl))bis(phenylmethanone)], the IC50 was 44.1 ± 2.36 µM in data set [1] (Leishmania amazonensis) and 68.4 ± 2.61 µM in data set [3]. The CC50 in data set [2] came out at 383.9 ± 3.21 µM; in data set [4], 568.1 ± 2.58 µM.

For “N′,N‴-(((2-Hydroxypropane-1,3-diyl)bis(1H-1,2,3-triazole-1,4-diyl))bis(phenylmethaneylylidene))di(benzohydrazide) [12b]”, in data set [1], the IC50 amounted to 34.46 ± 0.28 µM. The CC50 in data set [5] is 118 ± 17.1 µM.

These data come from publication PMC12242654, “Design, Synthesis, and In Vitro Evaluation of the Leishmanicidal Activity of New Aromatic Symmetrical 1,4-Disubstituted 1,2,3-Bistriazoles” (ACS Omega, 2025).
